Results taken from patent US20220265629A1, “TREATMENT OF SYSTOLIC DYSFUNCTION AND HEART FAILURE WITH REDUCED EJECTION FRACTION WITH THE COMPOUND (R)-4-(1-((3-(DIFLUOROMETHYL)-1-METHYL-1H-PYRAZOL-4-YL)SULFONYL)-1-FLUOROETHYL)-N-(ISOXAZOL-3-YL)PIPERIDINE-1-CARBOXAMIDE” (MyoKardia, Inc., priority 2019, published 2022).

Key:
healthy subjects = assay: Single ascending oral dose study in healthy volunteers: safety (AEs, ECG, hs-troponin I); assay type: in vivo, human
Protocol: PK and PD data were collected as described herein. […] Changes from Baseline at each postbaseline timepoint were assessed.
A 12-lead electrocardiogram (ECG) was obtained after the subjects had rested in a supine position for at least 10 minutes. […] Digital 12-lead ECG evaluations was performed after 10 minutes of rest at Screening, preclose on Day 1 (within 2 hours of dosing), and at various predetermined time points. Each time an ECG was completed, a 10-second paper ECG rhythm strip would also be obtained and maintained in the subject's source documentation.
The ECGs were transmitted to the core ECG laboratory who read the recordings in a blinded manner. An automated methodology was utilized with manual over-reading by a cardiologist. The following intervals were measured: RR, PR, QRS, and QT. Heart rate (HR) was calculated as 60/(RR×1000) (with RR expressed in msec) and rounded to the nearest integer.
Corrected QT interval (QTc) was calculated using the manually over-read QT values per the standard procedures of the central ECG laboratory. Each individual ECG QT value was corrected for HR. The measured QT data were corrected for HR using the Fridericia correction QTcF and the Bazzett method (QTcB) as per the following formulae/method (with QT, RR and QTc expressed in msec): […]
Any abnormal findings judged by the investigator to be clinically important were recorded as adverse events (AEs). AEs were mapped to system organ classes (SOCs) and preferred terms (PTs) using the Medical Dictionary for Regulatory Activities (MedDRA). AEs were monitored during the study and the data analyzed with respect to overall incidence, severity, and potential relationship to study medication. The blinded AEs were presented to the SRC for review after each cohort to aid in their decision on the dose of the subsequent cohort or if the study should be terminated. […] No ECG changes or symptoms were noted.
For the final analysis, the AEs were grouped by treatment group with all of the subjects who received placebo pooled as 1 group. AEs with onset on or after the first dose of study medication, or with an onset before the first dose of study medication that increased in severity on or after the first dose of study medication. Treatment-emergent AEs (defined as AEs starting […]) were summarized for the Safety Analysis Population by MedDRA SOC and PT, and by severity and relationship to treatment. Severe and life-threatening AEs, SAEs, and AEs leading to study withdrawal, if any, were presented in data listings.
Serum samples were drawn for hs-troponin I. Analyses were performed using the Abbott Architect STAT High Sensitivity Troponin I assay.

healthy volunteers = assay: Food effect cross-over study, healthy volunteers: safety; assay type: in vivo, human
Protocol: ECG was performed as described in Example 1. The following intervals were measured: RR, PR, QRS, and QT. Heart rate (HR) was calculated as 60/(RR×1000) (with RR expressed in msec) and rounded to the nearest integer. Each individual ECG QT value was corrected for HR. The measured QT data was corrected for HR using the Fridericia method (QTcF) as per the following formulae/method (with QT, RR and QTc expressed in ms): […]
The Investigator or designee monitored the continuous ECG telemetry data and correlated the finding(s) with any other clinical findings, study participant's medical history, study participant's clinical status and laboratory data to determine the clinical importance of the finding.
Serum troponin-I concentrations were determined as described in Example 1. Abnormal and/or rising troponin values (as per Investigator's judgment and taking into account potential Baseline troponin elevation) led to the subject being clinically evaluated for possible myocardial ischemia. […] The entire clinical context would be evaluated (e.g., signs, symptoms, new ECG changes, new troponin, and CK-MB abnormalities) and correlated with any other relevant clinical findings, the subject's medical history, and laboratory data to determine the clinical significance of the findings.

cardiac actin and myosin = cardiac actin and myosin (Homo sapiens, UniProt P12883); assay: Crossbridge formation (phosphate release) and detachment (ADP release) between cardiac actin and myosin; assay type: biochemical
cardiac actin and myosin, sequence (P12883 whole entry): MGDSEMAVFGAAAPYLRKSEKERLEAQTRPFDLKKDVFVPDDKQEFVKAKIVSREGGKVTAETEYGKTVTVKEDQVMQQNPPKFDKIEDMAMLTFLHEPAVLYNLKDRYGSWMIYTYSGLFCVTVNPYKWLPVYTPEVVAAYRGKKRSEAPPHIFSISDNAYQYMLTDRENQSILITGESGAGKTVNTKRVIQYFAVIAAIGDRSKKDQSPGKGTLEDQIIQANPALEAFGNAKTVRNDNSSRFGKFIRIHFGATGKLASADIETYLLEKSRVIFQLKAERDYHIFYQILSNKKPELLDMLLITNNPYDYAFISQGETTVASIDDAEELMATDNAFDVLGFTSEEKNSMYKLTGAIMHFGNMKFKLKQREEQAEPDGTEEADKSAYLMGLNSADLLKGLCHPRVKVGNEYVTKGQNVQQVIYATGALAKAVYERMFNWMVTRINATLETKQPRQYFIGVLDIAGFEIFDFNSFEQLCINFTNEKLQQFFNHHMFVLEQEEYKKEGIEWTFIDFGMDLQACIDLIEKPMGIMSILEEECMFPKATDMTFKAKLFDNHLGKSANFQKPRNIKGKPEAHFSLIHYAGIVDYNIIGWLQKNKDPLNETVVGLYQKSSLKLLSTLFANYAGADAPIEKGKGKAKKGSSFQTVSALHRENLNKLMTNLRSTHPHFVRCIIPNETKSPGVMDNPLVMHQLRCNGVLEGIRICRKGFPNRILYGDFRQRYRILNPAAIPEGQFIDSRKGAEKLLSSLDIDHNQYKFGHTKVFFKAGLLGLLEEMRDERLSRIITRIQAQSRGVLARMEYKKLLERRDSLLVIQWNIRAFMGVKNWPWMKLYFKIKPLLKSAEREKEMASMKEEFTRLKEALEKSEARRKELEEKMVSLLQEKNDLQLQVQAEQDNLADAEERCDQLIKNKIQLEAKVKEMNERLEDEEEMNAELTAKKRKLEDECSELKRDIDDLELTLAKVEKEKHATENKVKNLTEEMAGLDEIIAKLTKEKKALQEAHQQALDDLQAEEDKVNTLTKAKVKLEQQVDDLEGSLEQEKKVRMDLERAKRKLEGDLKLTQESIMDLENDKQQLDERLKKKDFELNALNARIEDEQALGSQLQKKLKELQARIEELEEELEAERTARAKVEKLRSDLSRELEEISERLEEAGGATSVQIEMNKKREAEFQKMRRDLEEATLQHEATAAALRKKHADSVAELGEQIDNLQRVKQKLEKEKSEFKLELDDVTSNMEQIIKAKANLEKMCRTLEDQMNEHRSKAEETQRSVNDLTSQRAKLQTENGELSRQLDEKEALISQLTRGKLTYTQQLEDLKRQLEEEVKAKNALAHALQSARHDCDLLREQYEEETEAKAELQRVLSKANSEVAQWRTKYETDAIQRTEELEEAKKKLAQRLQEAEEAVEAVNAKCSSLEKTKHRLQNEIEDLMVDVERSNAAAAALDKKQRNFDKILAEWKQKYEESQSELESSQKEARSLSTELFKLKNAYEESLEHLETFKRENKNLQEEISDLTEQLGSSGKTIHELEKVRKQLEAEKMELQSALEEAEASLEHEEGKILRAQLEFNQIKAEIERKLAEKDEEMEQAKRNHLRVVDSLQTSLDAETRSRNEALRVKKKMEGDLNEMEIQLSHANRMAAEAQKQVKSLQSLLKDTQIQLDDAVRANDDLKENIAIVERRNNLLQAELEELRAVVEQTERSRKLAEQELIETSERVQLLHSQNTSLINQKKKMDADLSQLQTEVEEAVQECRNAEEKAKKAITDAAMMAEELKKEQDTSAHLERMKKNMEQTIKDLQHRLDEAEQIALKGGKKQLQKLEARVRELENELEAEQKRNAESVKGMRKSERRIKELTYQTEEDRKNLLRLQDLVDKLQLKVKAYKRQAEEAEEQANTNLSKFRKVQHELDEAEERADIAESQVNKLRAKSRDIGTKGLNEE
cardiac actin and myosin, sequence (P08590 whole entry partner): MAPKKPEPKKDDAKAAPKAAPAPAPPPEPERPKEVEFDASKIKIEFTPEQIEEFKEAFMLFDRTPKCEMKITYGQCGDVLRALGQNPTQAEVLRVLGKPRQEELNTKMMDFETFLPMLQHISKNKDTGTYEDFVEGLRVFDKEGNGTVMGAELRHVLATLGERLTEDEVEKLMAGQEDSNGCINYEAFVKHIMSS
Source text: or a pharmaceutically acceptable salt thereof. […] Crossbridge formation and detachment are critical steps in each cycle of cardiac contraction. Compound I reversibly binds to myosin, increasing the number of myosin/actin crossbridges available to participate in the strongly bound state of the chemomechanical cycle and thereby increasing contraction.

Question: Which “AEs considered related to treatment” value (healthy subjects; 50 mg dose group (50.0%)) does the source give for `Cn1cc(S(=O)(=O)[C@@](C)(F)C2CCN(C(=O)Nc3ccon3)CC2)c(C(F)F)n1` [Compound I, (R)-4-(1-((3-(difluoromethyl)-1-methyl-1H-pyrazol-4-yl)sulfonyl)-1-fluoroethyl)-N-(isoxazol-3-yl)piperidine-1-carboxamide] here?
Answer: The value was 3 subjects.

Question: And the “serious AE” value (healthy subjects; 100 mg dose group)?
Answer: Its value is “short duration of complete AV block”.

Question: And the “AEs considered related to treatment” value (healthy subjects; 350 mg dose group (50.0%))?
Answer: Its value is 3 subjects.

Question: And the hs-troponin I concentration in one subject (healthy subjects; 525 mg group, 6 hours postdose, upper limit of normal 15 ng/L)?
Answer: The hs-troponin I concentration in one subject was 16 ng/L.

Question: What about the “ECG or ECG intervals including PR interval” value (healthy subjects; 3-525 mg) of the same molecule?
Answer: The value was “no significant changes”.

Question: And the “vital sign or safety laboratory parameters” value (healthy subjects; 3-525 mg)?
Answer: Its value is “no clinically significant changes”.

Question: What about the tolerability (healthy subjects; single doses up to 525 mg) of the same molecule?
Answer: Its tolerability is “well-tolerated”.

Question: What about the “hs-troponin I, mild increase in one subject” value (healthy subjects; upper range of normal 15 ng/L) of the same molecule?
Answer: Its value is 16 ng/L.

Question: And the troponin-I (healthy volunteers; 200 mg, fasted or fed state)?
Answer: Its troponin-I is “No increase”.

Question: And the “abnormal ECG results” value (healthy volunteers; 200 mg, fasted state)?
Answer: The value was 3 (30.0%).

Question: What about the headache (healthy volunteers; 200 mg, fasted state) of the same molecule?
Answer: The headache was 4 subjects.

Question: What about the “abnormal ECG results” value (healthy volunteers; 200 mg, fed state) of the same molecule?
Answer: Its value is 2 (20.0%).

Question: And the headache (healthy volunteers; 200 mg, fed state)?
Answer: The headache was 1 subject.

Question: What about the tolerability (healthy volunteers; single dose of 200 mg) of the same molecule?
Answer: Its tolerability is “well-tolerated”.

Question: And the “crossbridge detachment (measured as ADP release)” value (cardiac actin and myosin)?
Answer: Its value is “does not inhibit crossbridge detachment”.

Question: And the “crossbridge formation (measured as phosphate release)” value (cardiac actin and myosin; between cardiac actin and myosin)?
Answer: Its value is “increases crossbridge formation”.
